Source: article PMC11374673, “Discovery of isoquinoline sulfonamides as allosteric gyrase inhibitors with activity against fluoroquinolone-resistant bacteria” (Nature Chemistry, 2024)
“And” between values parts separate entries of the source, which are not always exact repeats. Identical values can stand only once.

How the values were obtained:
E. coli DNA gyrase = molecular target: T1, E. coli DNA gyrase (Escherichia coli, UniProt P0AES4); assay: Gyrase supercoiling inhibition, gel-based; format: biochemical
T1 construct: purchased Inspiralis Limited
T1 sequence (P0AES4 whole entry): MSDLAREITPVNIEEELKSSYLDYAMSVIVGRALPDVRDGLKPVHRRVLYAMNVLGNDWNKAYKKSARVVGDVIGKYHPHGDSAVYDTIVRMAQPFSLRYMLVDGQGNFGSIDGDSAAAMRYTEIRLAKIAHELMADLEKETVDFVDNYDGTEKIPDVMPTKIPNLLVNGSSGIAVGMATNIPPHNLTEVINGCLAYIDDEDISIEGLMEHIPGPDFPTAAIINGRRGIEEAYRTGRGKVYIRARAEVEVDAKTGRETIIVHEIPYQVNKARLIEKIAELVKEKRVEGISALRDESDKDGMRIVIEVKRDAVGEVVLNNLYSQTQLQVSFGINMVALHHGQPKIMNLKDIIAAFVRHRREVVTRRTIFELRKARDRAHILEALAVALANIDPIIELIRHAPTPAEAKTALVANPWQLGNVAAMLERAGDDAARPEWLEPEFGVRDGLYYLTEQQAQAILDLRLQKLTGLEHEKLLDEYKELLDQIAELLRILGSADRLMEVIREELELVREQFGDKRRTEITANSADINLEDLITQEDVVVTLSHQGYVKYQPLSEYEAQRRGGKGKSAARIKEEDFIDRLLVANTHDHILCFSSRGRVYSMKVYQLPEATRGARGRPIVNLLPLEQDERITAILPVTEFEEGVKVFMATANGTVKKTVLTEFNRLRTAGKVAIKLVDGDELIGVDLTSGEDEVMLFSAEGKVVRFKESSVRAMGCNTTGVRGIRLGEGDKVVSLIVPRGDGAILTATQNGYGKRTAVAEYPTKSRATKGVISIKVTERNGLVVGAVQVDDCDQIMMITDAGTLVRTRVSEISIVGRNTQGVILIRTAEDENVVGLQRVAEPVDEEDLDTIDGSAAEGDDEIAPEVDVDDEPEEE
Procedure: Of this stock solution, 27 µl was aliquoted for each reaction in 1.5 ml Eppendorf tubes and supplemented with 0.6 µl of the appropriate compound dilution or corresponding solvent with a final DMSO concentration of 2%. The reactions were started with 3 µl of enzyme (1 U for WT gyrase retrieved from Inspiralis Limited or 25–30 nM gyrase variants purified in house) in dilution buffer (50 mM Tris–HCl (pH 7.5), 100 mM KCl, 2 mM DTT, 1 mM EDTA and 50% (wt/vol) glycerol) for a final volume of 30 µl. Reactions were run at 37 °C for 30 min and stopped with the addition of 30 µl STEB buffer (40% (wt/vol) sucrose, 100 mM Tris–HCl pH 8, 100 mM EDTA, 0.5 mg ml^−1 bromophenol blue) and 30 µl of a chloroform:isoamyl alcohol solution (24:1 vol/vol). After brief vortexing and centrifugation at 2,300g for 1 min, 20 µl of the aqueous phase was loaded onto 1% (wt/vol) agarose gels in TAE ([…]) gel. The gels were run at 85 V for 2 h followed by staining (15 min) in 1 µg ml^−1 ethidium bromide and destaining (5–10 min) in water. […] IC50 curves were generated in GraphPad Prism (v9.0.0) using the non-linear regression curve fit variable slope with four parameters and least squares regression. A. baumannii and P. aeruginosa gyrase supercoiling inhibition assays were set up in the same way as E. coli gyrase supercoiling assays. The enzyme was retrieved from Inspiralis Ltd. (PAG1001 and ABG1001) and tested in-house for activity with ×5 U enzyme used for each reaction.

P. aeruginosa gyrase = molecular target: T2, P. aeruginosa gyrase (Pseudomonas aeruginosa, UniProt P48372); assay: Gyrase supercoiling inhibition; format: biochemical
T2 construct: purchased Inspiralis Ltd. PAG1001
T2 sequence (P48372 whole entry): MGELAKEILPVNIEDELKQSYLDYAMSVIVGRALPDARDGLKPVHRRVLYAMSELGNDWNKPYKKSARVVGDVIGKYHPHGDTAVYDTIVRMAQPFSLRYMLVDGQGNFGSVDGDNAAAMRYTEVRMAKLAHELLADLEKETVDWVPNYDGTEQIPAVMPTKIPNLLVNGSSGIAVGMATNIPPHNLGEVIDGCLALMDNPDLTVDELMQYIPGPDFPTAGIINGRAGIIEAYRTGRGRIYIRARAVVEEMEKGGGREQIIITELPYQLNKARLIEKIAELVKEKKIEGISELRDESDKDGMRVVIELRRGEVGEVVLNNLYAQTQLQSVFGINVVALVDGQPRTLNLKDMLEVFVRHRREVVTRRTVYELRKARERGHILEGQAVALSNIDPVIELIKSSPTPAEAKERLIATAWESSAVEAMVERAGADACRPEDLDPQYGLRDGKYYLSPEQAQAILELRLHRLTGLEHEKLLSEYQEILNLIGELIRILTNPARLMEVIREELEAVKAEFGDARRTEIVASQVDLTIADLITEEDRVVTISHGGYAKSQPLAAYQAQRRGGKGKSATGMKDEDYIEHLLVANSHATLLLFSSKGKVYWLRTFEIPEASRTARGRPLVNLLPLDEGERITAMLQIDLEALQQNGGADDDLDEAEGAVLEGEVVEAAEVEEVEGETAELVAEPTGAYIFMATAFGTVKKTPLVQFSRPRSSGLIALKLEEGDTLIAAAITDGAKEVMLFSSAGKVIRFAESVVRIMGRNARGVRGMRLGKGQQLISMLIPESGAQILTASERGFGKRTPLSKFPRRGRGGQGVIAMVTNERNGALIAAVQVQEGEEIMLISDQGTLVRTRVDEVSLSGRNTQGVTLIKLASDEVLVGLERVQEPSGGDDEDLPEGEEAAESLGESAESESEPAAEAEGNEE
T2 sequence (Q9I7C2 whole entry, further chain): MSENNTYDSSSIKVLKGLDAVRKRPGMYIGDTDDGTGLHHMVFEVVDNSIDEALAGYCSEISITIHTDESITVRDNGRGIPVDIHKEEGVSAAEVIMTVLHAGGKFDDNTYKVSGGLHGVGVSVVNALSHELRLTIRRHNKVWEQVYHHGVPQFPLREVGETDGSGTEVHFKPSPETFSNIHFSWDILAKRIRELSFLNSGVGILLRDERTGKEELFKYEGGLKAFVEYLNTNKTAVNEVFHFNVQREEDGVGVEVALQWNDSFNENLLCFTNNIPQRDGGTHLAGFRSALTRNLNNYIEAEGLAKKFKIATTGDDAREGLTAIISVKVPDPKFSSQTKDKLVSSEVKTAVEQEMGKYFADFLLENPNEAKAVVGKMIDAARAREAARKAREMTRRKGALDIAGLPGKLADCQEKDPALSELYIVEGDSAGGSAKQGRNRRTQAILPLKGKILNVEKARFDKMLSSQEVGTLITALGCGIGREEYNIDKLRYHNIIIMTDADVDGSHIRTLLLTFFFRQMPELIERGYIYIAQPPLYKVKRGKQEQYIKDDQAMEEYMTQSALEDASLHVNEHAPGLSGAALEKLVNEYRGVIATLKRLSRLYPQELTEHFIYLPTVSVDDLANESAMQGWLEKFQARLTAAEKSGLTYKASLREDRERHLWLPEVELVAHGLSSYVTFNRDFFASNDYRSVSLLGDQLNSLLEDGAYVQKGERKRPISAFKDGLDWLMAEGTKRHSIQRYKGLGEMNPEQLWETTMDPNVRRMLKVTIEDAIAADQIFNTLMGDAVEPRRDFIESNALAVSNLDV
Procedure: Of this stock solution, 27 µl was aliquoted for each reaction in 1.5 ml Eppendorf tubes and supplemented with 0.6 µl of the appropriate compound dilution or corresponding solvent with a final DMSO concentration of 2%. The reactions were started with 3 µl of enzyme (1 U for WT gyrase retrieved from Inspiralis Limited or 25–30 nM gyrase variants purified in house) in dilution buffer (50 mM Tris–HCl (pH 7.5), 100 mM KCl, 2 mM DTT, 1 mM EDTA and 50% (wt/vol) glycerol) for a final volume of 30 µl. Reactions were run at 37 °C for 30 min and stopped with the addition of 30 µl STEB buffer (40% (wt/vol) sucrose, 100 mM Tris–HCl pH 8, 100 mM EDTA, 0.5 mg ml^−1 bromophenol blue) and 30 µl of a chloroform:isoamyl alcohol solution (24:1 vol/vol). After brief vortexing and centrifugation at 2,300g for 1 min, 20 µl of the aqueous phase was loaded onto 1% (wt/vol) agarose gels in TAE (Tris–acetate […]) gel. The gels were run at 85 V for 2 h followed by staining (15 min) in 1 µg ml^−1 ethidium bromide and destaining (5–10 min) in water. DNA was visualized (602/50, UV Trans, auto optimal exposure) with a ChemiDoc MP (Bio-Rad Laboratories Inc., equipped with ImageLab Touch Software v2.0.0.27) and the percentage of supercoiled DNA relative to the total amount material per lane was determined with ImageLab 6.1 software (Bio-Rad Laboratories Inc.) or ImageJ[47] software. […]

E. coli = assay: Checkerboard assay LEI-800 with CIP; format: cell-based, Escherichia coli;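 further: bacterial growth read as OD600 after 20 h at 37 °C with shaking, each drug pair tested in triplicate wells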
E. coli gyrase = E. coli gyrase (Escherichia coli, UniProt P0AES4); assay: ATP-independent relaxation inhibition; format: biochemical; conditions: 200 nM gyrase
E. coli gyrase, sequence (P0AES4 whole entry): as the sequence (P0AES4 whole entry) above
Procedure: E. coli relaxation inhibition assays were conducted in a similar manner to supercoiling inhibition assays with the following modifications: spermidine and ATP were omitted from the assay buffer, supercoiled plasmid (pBR322) was used as DNA substrate and 200 nM E. coli gyrase was added to each reaction. After stopping each reaction with STEB, 3 µl 2% SDS was added and tubes were vigorously vortexed before loading the aqueous phase onto the gel.

[1] = Ciprofloxacin 0 nM + LEI-800 0.1 µM
[2] = Ciprofloxacin 0 nM + LEI-800 0.2 µM
[3] = Ciprofloxacin 0 nM + LEI-800 0.4 µM
[4] = Ciprofloxacin 0 nM + LEI-800 0.8 µM
[5] = Ciprofloxacin 0 nM + LEI-800 3.1 µM
[6] = Ciprofloxacin 0 nM + LEI-800 6.2 µM

Question: Which IC50 (E. coli DNA gyrase) does the source give for `O=S(=O)(NC[C@@H]1CC[C@H](c2ccc(-c3cccnc3)cc2)N1)c1cccc2cnccc12` [LEI-800] here?
Answer: The IC50 was 35 nM.

Question: What about the “fold more potent than CIP” value (E. coli DNA gyrase; supercoiling IC50 ratio) of the same compound?
Answer: The value was greater than 25 fold.

Question: What about the IC50 (P. aeruginosa gyrase) of the same compound?
Answer: Its IC50 is 96 nM.

Question: What about the “checkerboard plate reading, Average values” (E. coli; [1]) of the same compound?
Answer: The value was 0.7858.

Question: And the “checkerboard plate reading, replicate wells” value (E. coli; [1])?
Answer: The value was 0.7683 and 0.7669 and 0.8222.

Question: And the “checkerboard plate reading, Average values” (E. coli; [2])?
Answer: Its value is 0.7715.

Question: And the “checkerboard plate reading, replicate wells” value (E. coli; [2])?
Answer: Its value is 0.7509 and 0.7706 and 0.7931.

Question: And the “checkerboard plate reading, Average values” (E. coli; [3])?
Answer: The value was 0.7601.

Question: What about the “checkerboard plate reading, replicate wells” value (E. coli; [3]) of the same compound?
Answer: The value was 0.7802 and 0.7598 and 0.7404.

Question: What about the “checkerboard plate reading, Average values” (E. coli; [4]) of the same compound?
Answer: Its value is 0.5878.

Question: And the “checkerboard plate reading, replicate wells” value (E. coli; [4])?
Answer: Its value is 0.6002 and 0.5903 and 0.5728.

Question: What about the “checkerboard plate reading, Average values” (E. coli; [5]) of the same compound?
Answer: Its value is 0.291.

Question: And the “checkerboard plate reading, replicate wells” value (E. coli; [5])?
Answer: Its value is 0.2991 and 0.2865 and 0.2872.

Question: What about the “checkerboard plate reading, Average values” (E. coli; [6]) of the same compound?
Answer: The value was 0.1602.

Question: What about the “checkerboard plate reading, replicate wells” value (E. coli; [6]) of the same compound?
Answer: Its value is 0.157 and 0.1619 and 0.1616.

Question: And the “checkerboard plate reading, Average values” (E. coli; Ciprofloxacin 0 nM + LEI-800 […])?
Answer: Its value is 0.4748.

Question: And the “ATP-independent supercoiling relaxation” value (E. coli gyrase)?
Answer: The value was “inhibited”.
